Patent publication US20070117743A1, “New antitumoral compounds” (priority 2003, published 2007)
Where a SMILES comes first, the peptide text is derived from it. Bridges are numbered along the chain shown (N, C = ends). [ ]: non-standard residue; d: D form. The star is where a group is joined. d(aIle) = CC[C@H](C)[C@@H](N)C(=O)O; d(aThr) = C[C@@H](O)[C@@H](N)C(=O)O; Hexanoyl(5-Me) = CC(C)CCCC(=O)*; Orn = NCCC[C@H](N)C(=O)O; Dhb = C/C=C(\N)C(=O)O

Experiments:
Type in all cases: cell-based, human
K-562 = assay: SRB colorimetric assay of cell growth and viability, K-562; details: 48 hours exposure; for CC50: read-out: LC50 K-562
LoVo = assay: SRB colorimetric assay of cell growth and viability, LoVo; details: 48 hours exposure; for CC50: read-out: LC50 LOVO
HT-29 = assay: SRB colorimetric assay of cell growth and viability, HT-29; details: 48 hours exposure; for GI50: read-out: GI50 HT-29; for CC50: read-out: LC50 HT-29
HeLa = assay: SRB colorimetric assay of cell growth and viability, HeLa; details: 48 hours exposure; for CC50: read-out: LC50 HELA
DU-145 = assay: SRB colorimetric assay of cell growth and viability, DU-145; details: 48 hours exposure
PANC-1 = assay: SRB colorimetric assay of cell growth and viability, PANC-1; details: 48 hours exposure; for CC50: read-out: LC50 PANC-1
HeLa-APL = assay: SRB colorimetric assay of cell growth and viability, HeLa-APL; details: 48 hours exposure; for CC50: read-out: LC50 HELA-APL
IGROV-ET = assay: SRB colorimetric assay of cell growth and viability, IGROV-ET; details: 48 hours exposure; for CC50: read-out: LC50 IGROV-ET
SK-MEL-28 = assay: SRB colorimetric assay of cell growth and viability, SK-MEL-28; details: 48 hours exposure; for CC50: read-out: LC50 MEL-28
LoVo-Dox = assay: SRB colorimetric assay of cell growth and viability, LoVo-Dox; details: 48 hours exposure; for CC50: read-out: LC50 LOVO-DOX
Procedure, shortened: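 Sulforhodamine B assay run after 48 h of continuous drug contact; cells seeded 5×10^3/well in RPMI 1640 10% FBS, attached 18 h. Triplicate OD490 values give cytostatic (TGI), cytotoxic (LC) and GI parameters.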

IGROV-1 = assay: SRB colorimetric assay of cell growth and viability, IGROV-1; details: 48 hours exposure
A-549 = assay: SRB colorimetric assay of cell growth and viability, A-549; details: 48 hours exposure; for GI50: read-out: GI50 A-549; for CC50: read-out: LC50 A-549

| SMILES | GI50 (K-562) [µM] | TGI K-562 (K-562) [Molar] | CC50 (K-562) [µM] | GI50 (LoVo) [µM] | TGI LOVO (LoVo) [Molar] | CC50 (LoVo) [µM] | TGI HT-29 (HT-29) [Molar] | GI50 (HT-29) [µM] | CC50 (HT-29) [µM] | GI50 (HeLa) [µM] | TGI HELA (HeLa) [Molar] | CC50 (HeLa) [µM] | GI50 (DU-145) [µM] | LC50 (concentration causing 50% net cell kill) (DU-145) [µM] | TGI DU-145 (DU-145) [Molar] | GI50 (PANC-1) [µM] | TGI PANC-1 (PANC-1) [Molar] | CC50 (PANC-1) [µM] | GI50 (HeLa-APL) [µM] | TGI HELA-APL (HeLa-APL) [Molar] | also measured |
| --- | --- | --- | --- | --- | --- | --- | --- | --- | --- | --- | --- | --- | --- | --- | --- | --- | --- | --- | --- | --- | --- |
| C/C=C1\NC(=O)[C@H](Cc2ccccc2)NC(=O)[C@@H](C(C)C)NC(=O)[C@@H]([C@@H](C)CC)NC(=O)[C@H](NC(=O)[C@H](NC(=O)[C@H](CCCN)NC(=O)[C@H]2CCCN2C(=O)[C@H](NC(=O)[C@@H](NC(=O)[C@@H](NC(=O)[C@@H](CC(C)C)NC(=O)CCCC(C)C)[C@@H](C)O)C(C)C)C(C)C)[C@@H](C)CC)[C@@H](C)OC(=O)[C@H](C(C)C)NC1=O [Compound 35, [D-Leu^13]-KF] | 1.23 | 2.30E−06 | 4.28 | 0.2 | 8.04E−07 | 2.28 | 1.62E−06 | 0.771 | 3.39 | 0.878 | 1.74E−07 | 3.43 | 0.905 | 3.53 | 1.79E−06 | 0.751 | 1.87E−06 | 4.67 | 0.0133 | 1.31E−06 | CC50 (HeLa-APL): 6.7 µM; GI50 (IGROV-ET): 0.684 µM; TGI IGROV-ET (IGROV-ET): 1.49E−06 Molar; CC50 (IGROV-ET): 3.26 µM; GI50 (SK-MEL-28): 1.17 µM; TGI MEL-28 (SK-MEL-28): 2.10E−06 Molar; CC50 (SK-MEL-28): 3.79 µM; GI50 (LoVo-Dox): 0.158 µM; TGI LOVO-DOX (LoVo-Dox): 3.46E−07 Molar; CC50 (LoVo-Dox): 0.871 µM; GI50 (IGROV-1): 0.717 µM; LC50 (concentration causing 50% net cell killing) (IGROV-1): 3.24 µM; TGI IGROV (IGROV-1): 1.53E−06 Molar; TGI A-549 (A-549): 9.58E−07 Molar; GI50 (A-549): 0.124 µM; CC50 (A-549): 2.65 µM |
| C/C=C1\NC(=O)[C@H](Cc2ccccc2)NC(=O)[C@@H](C(C)C)NC(=O)[C@@H]([C@@H](C)CC)NC(=O)[C@H](NC(=O)[C@H](NC(=O)[C@H](CCCN)NC(=O)[C@H]2CCCN2C(=O)[C@H](NC(=O)[C@@H](NC(=O)[C@H](CCC(=O)O)NC(=O)CCCC(C)C)C(C)C)C(C)C)[C@@H](C)CC)[C@@H](C)OC(=O)[C@H](C(C)C)NC1=O [Compound 56, [Glu^12, noD-Val^13]-KF] ({Hexanoyl(5-Me)}-EV[dV][dP][Orn][d(aIle)][d(aThr)][d(aIle)][dV]F[Dhb]V; ester 7-C) | ≥ 7.11 | 7.11E−06 | ≥ 7.11 | 2.22 | 7.11E−06 | ≥ 7.11 | 7.11E−06 | ≥ 7.11 | ≥ 7.11 | 0.37 | 7.11E−06 | ≥ 7.11 | 1.95 | ≥ 7.11 | 7.11E−06 | 0.118 | 7.11E−06 | ≥ 7.11 | ≥ 7.11 | 7.11E−06 | CC50 (HeLa-APL): ≥ 7.11 µM; GI50 (IGROV-ET): 1.39 µM; TGI IGROV-ET (IGROV-ET): 7.11E−06 Molar; CC50 (IGROV-ET): ≥ 7.11 µM; GI50 (SK-MEL-28): ≥ 7.11 µM; TGI MEL-28 (SK-MEL-28): 7.11E−06 Molar; CC50 (SK-MEL-28): ≥ 7.11 µM; GI50 (LoVo-Dox): ≥ 7.11 µM; TGI LOVO-DOX (LoVo-Dox): 7.11E−06 Molar; CC50 (LoVo-Dox): ≥ 7.11 µM; GI50 (IGROV-1): 2.78 µM; LC50 (concentration causing 50% net cell killing) (IGROV-1): ≥ 7.11 µM; TGI IGROV (IGROV-1): 7.11E−06 Molar; TGI A-549 (A-549): 7.11E−06 Molar; GI50 (A-549): 0.168 µM; CC50 (A-549): ≥ 7.11 µM |
| C/C=C1\NC(=O)[C@H](Cc2ccccc2)NC(=O)[C@@H](C(C)C)NC(=O)[C@@H]([C@@H](C)CC)NC(=O)[C@H](NC(=O)[C@H](NC(=O)[C@H](CCCN)NC(=O)[C@H]2CCCN2C(=O)[C@H](NC(=O)[C@@H](NC(=O)[C@@H](NC(=O)[C@@H](CCC(=O)O)NC(=O)CCCC(C)C)[C@@H](C)O)C(C)C)C(C)C)[C@@H](C)CC)[C@@H](C)OC(=O)[C@H](C(C)C)NC1=O [Compound 39, [D-Glu^13]-KF] | 1.27 | 2.47E−06 | 4.82 | 0.889 | 1.72E−06 | 3.34 | 2.16E−06 | 1.2 | 3.87 | 4.18 | 6.63E−06 | 6.63 | 3.48 | 6.63 | 6.63E−06 | 4.1 | 6.63E−06 | 6.63 | 2.75 | 6.63E−06 | CC50 (HeLa-APL): 6.63 µM; GI50 (IGROV-ET): 1.29 µM; TGI IGROV-ET (IGROV-ET): 2.29E−06 Molar; CC50 (IGROV-ET): 4.09 µM; GI50 (SK-MEL-28): 3.39 µM; TGI MEL-28 (SK-MEL-28): 6.63E−06 Molar; CC50 (SK-MEL-28): 6.63 µM; GI50 (LoVo-Dox): 0.889 µM; TGI LOVO-DOX (LoVo-Dox): 1.70E−06 Molar; CC50 (LoVo-Dox): 3.26 µM; GI50 (IGROV-1): 1.33 µM; LC50 (concentration causing 50% net cell killing) (IGROV-1): 4.11 µM; TGI IGROV (IGROV-1): 2.33E−06 Molar; TGI A-549 (A-549): 6.63E−06 Molar; GI50 (A-549): 4.41 µM; CC50 (A-549): 6.63 µM |
| C/C=C1\NC(=O)[C@H](Cc2ccccc2)NC(=O)[C@@H](C(C)C)NC(=O)[C@@H]([C@@H](C)CC)NC(=O)[C@H](NC(=O)[C@H](NC(=O)[C@H](CCCN)NC(=O)[C@H]2CCCN2C(=O)[C@H](NC(=O)[C@@H](NC(=O)[C@@H](NC(=O)[C@H]2CCCN2C(=O)CCCC(C)C)[C@@H](C)O)C(C)C)C(C)C)[C@@H](C)CC)[C@@H](C)OC(=O)[C@H](C(C)C)NC1=O [Compound 37, [D-Pro^13]-KF] | 0.684 | 1.48E−06 | 3.2 | 0.114 | 1.02E−06 | 2.97 | 6.78E−06 | 0.391 | 6.78 | 0.0129 | 2.83E−08 | 0.062 | 0.228 | 1.96 | 5.81E−07 | 0.0154 | 3.12E−08 | 0.0628 | 0.888 | 2.01E−06 | CC50 (HeLa-APL): 4.55 µM; GI50 (IGROV-ET): 1.21 µM; TGI IGROV-ET (IGROV-ET): 2.24E−06 Molar; CC50 (IGROV-ET): 4.15 µM; GI50 (SK-MEL-28): 0.0766 µM; TGI MEL-28 (SK-MEL-28): 2.76E−07 Molar; CC50 (SK-MEL-28): 1.3 µM; GI50 (LoVo-Dox): 1.78 µM; TGI LOVO-DOX (LoVo-Dox): 4.30E−06 Molar; CC50 (LoVo-Dox): 6.78 µM; GI50 (IGROV-1): 0.165 µM; LC50 (concentration causing 50% net cell killing) (IGROV-1): 2.55 µM; TGI IGROV (IGROV-1): 8.27E−07 Molar; TGI A-549 (A-549): 3.90E−08 Molar; GI50 (A-549): 0.0174 µM; CC50 (A-549): 0.813 µM |
